Results published in paper PMC7329984, “A Broad Temperature Active Lipase Purified From a Psychrotrophic Bacterium of Sikkim Himalaya With Potential Application in Detergent Formulation” (Frontiers in Bioengineering and Biotechnology, 2020).

Tests used:
[1] = system: T1, ERMR1:04 lipase; assay: p-nitrophenol release at […] nm; Lineweaver-Burk plot; format: biochemical, Chryseobacterium polytrichastri; conditions: 50 mM Tris pH 8, 37°C; 0.025-0.3 mM substrate
T1 construct: gene alpha/beta hydrolase; native extracellular enzyme purified from culture supernatant (ammonium sulfate, Sephadex G-100, Octyl-Sepharose); gene not firmly identified: MALDI top hit alpha/beta hydrolase of Solibacillus sp

[2] = biological target: extracellular lipase of Chryseobacterium polytrichastri ERMR1:04 (Chryseobacterium polytrichastri ERMR1:04 (endogenous, secreted)); assay: native gel or EMSA; 10% native PAGE of the Octyl-Sepharose purified lipase (250 kDa band) compared with 12% SDS-PAGE (39.8 kDa band)

Compound | Km [1] | stoichiometry N [2]
CCCCCCCCCCCCCCCC(=O)Oc1ccc([N+](=O)[O-])cc1 [pNPP, p-nitrophenyl palmitate] | 104 µM | 
extracellular lipase of Chryseobacterium polytrichastri ERMR1:04 (enzyme) |  | 6
